According to patent publication US7030087B2, “Synthetic approach to designed chemical structures” (priority 1996, dated 2006):

How the values were obtained:
EC (endothelial cells) = experiment: EC proliferation, 3[H]thymidine incorporation assay; type: cell-based; conditions: expt 3; 100 μg/ml; 10 ng/ml bFGF; medium 3432 ± 232
Experimental: (§1) Since the in vivo situation of tumor associated EC involves the low expression or even absence of ICAM-1, the next set of experiments aimed to study the ability to reinduce ICAM-I expression after bFBF preincubation. […] In these experiments, HUVEC were pretreated for 3 days with bFGF, subsequently PF4 was added for 3 days and, where indicated in the last 16 hours of culture 4 ng/ml TNFα was added. Human umbilical vein derived endothelial cells (HUVEC) were harvested from normal human umbilical cords by perfusion with 0.125% trypsin/EDTA as described previously. Cells were cultured in fibronectin (FN) coated tissue culture flasks in culture medium (RPMI-1640 with 20% human serum (HS), supplemented with 2 mM glutamine and 100 U/ml penicillin and 0.1 mg/ml streptomycin). Immunofluorescence using indirect PE-conjugated reagents required three separate incubations. 1×10^5 EC were fixed for 1 hour in 1% paraformaldehyde, resuspended in 20 μl appropriately diluted Mab and incubated for 1 hour on ice. Subsequently, cells were washed two times in PBS/BSA (0.1%) and incubated for another 30 minutes with biotinylated rabbit-anti-mouse Ig (Dako, Glostrup, Denmark). After another 2 washings, cells were incubated with streptavidin-phycoerythrin conjugate (Dako). Stained cells were analyzed on a FACScan flowcytometer. Data analysis was performed using PCLysys software (Becton Dickinson, Mountain View, Calif.). Statistical significance of observed differences was determined using the Student's t-test.
EC proliferation was measured using a ^3[H]thymidine incorporation assay. EC were seeded in flatbottomed 96-well tissue culture plates (5000 cells/well) and grown for 3 days, in culture medium. In some cultures the proliferation of EC was enhanced by incubation with 10 ng/ml bFGF. During the list 6 hours of the assay, the culture was pulsed with 0.5 μCi [methyl-^3H]thymidine/well. Results are expressed as the arithmetic mean counts per minute (cpm) of triplicate cultures.

ICAM-1 = ICAM-1 expression on endothelial cells (immunofluorescence, FACScan); type: cell-based, human
Experimental: In a first series of experiments, PF4 and βpep peptides were tested for their ability to prevent bFGF (fibroblast growth factor) mediated downregulation of ICAM-1. […] Simultaneously 100 μg/ml of each PF4, βpep-14, βpep-16, or medium was added. Mean ICAM-1 fluorescence intensity values were determined.
as §1
The energy of EC to stimulation with inflammatory cytokines was the subject of a next series of experiments. For these experiments, HUVEC (human vascular endothelial cells) were pretreated with 10 ng/ml bFGF for 3 days. Subsequently, cells are subcultured for 3 days with […] in the presence of PF4. For the last 16 hours of the culture 4 ng/ml TNFα was added to induce upregulation of ICAM-1. […] The regulation of ICAM-1 at the protein level was confirmed in Northern blot analysis for detection of ICAM-1 message. In these experiments, HUVEC were cultured for 3 days with bFGF and treated for the last 4 and 24 hours with PF4 (100 μg/ml). TNFα was added 2 hours before isolation of RNA. RNA from a subconfluent EC cultures (75 cm^2 Petri-dishes) incubated with bFGF for different time-points was isolated using an RNA-zol kit (Campro Scientific, Houston, Tex.). Total RNA (10 μg) for each sample was separated in a 0.8% formaldehyde-denaturing gel, transferred to nitrocellulose (Hybond N+, Amersham International, Amersham, UK) and hybridized to a ^32P-labelled 1.9 Kb c-DNA probe, containing the functional sequence of the human ICAM-1 gene (a gift from Dr. B. Seed). Membranes were washed at a high stringency in 0.2×SSC, 0.1% SDS at 50° C. for 1 hour. Filters were exposed to X-ray films (Kodak X-omat, Eastman Kodak Company, Rochester, N.Y.) using an intensifying screen at −80° C. for not less than 12 hr. Autoradiograms were subjected to scanning using a laser densitometer (Model GS670, Bio-Rad, Hercules, Calif.) and data were analysed with the Molecular Analyst PC™ software. The intensity of the major ICAM-1 mRNA transcript was normalized with respect to actin mRNA expression used as a control.

[1] = tested on: endotoxin from E. coli 055:B5; experiment: Limulus amoebocyte lysate assay (E-TOXATE), endotoxin neutralization; type: biochemical; conditions: for Endotoxin Neutralization, % neutralization: 5.0 × 10^−6 M Peptide; for Endotoxin Neutralization, % neutralization / Endotoxin Neutralization, % at the effective dose / Endotoxin Neutralization, Ed, Effective M dose: Table 4; for Endotoxin Neutralization, % at the effective dose: at the Ed
Experimental: The peptides were tested for their ability to neutralize endotoxin. Quantitative endotoxin activities for these peptides were measured by Limulus amoebocyte lysate assay.
Limulus amoebocyte lysate assay: The ability of synthetic peptides to neutralize endotoxin was detected with the E-TOXATE kit manufactured by Sigma Chemicals (St. Louis, Mo.). […] Peptide or B/PI was incubated with LPS at room temperature for 5 min in 100 ul of a 1:2 dilution of pyrogen-free saline (pH 6.4). The reaction was started by addition of 100 ul of amoebocyte lysate and the final volume was 200 ul. Assuming a 10,000 molecular weight for LPS, the approximate molar ration of B/PI:LPS at neutralization was 3000 to 1.
The peptides were tested according to the method provided above. […] BG38L was used as a positive control in these experiments.

P. aeruginosa = experiment: Bactericidal activity assay; type: cell-based, Pseudomonas aeruginosa type 1; conditions: for Bactericidal Activity, % killing: 1.2 × 10^−7 M Peptide, 5 × 105 P. aeruginosa; for Bactericidal Activity, % killing at the effective dose: at the Ed for the same peptide; for Bactericidal Activity, Ed, Effective M dose: dose at which the % in brackets was found
Text: Bacteria: P. aeruginosa type 1 is a clinical isolate maintained in the laboratory. The isolate remains a smooth strain and was serotyped by the scheme of Homma. The Pseudomonas strain was maintained by monthly transfer on blood agar plates.
The peptides can be assayed for bactericidal activity against a variety of organisms such as Pseudomonas aeruginosa type 1, P. cepacia ATCC 25608, E. coli B, and Staphylococcus aureus 502A by standard methods.
Pseudomonas aeruginosa type 1 is a clinical isolate. The isolate remains a smooth strain and was serotyped by the scheme of Homma (Jpn. J. Exp. Med. 46:329, 1976). A rough strain, E. coli B and S. aureus 502A were obtained from Paul Quie, University of Minnesota (Minneapolis, Minn.). The characteristics of the S. aureus strain have been described by Shinefield et al. (Amer. J. Dis. Chil. 105:646, 1963). Pseudomonas cepacia ATCC 25608 can be purchased from the ATCC. S. aureus and E. coli were maintained on nutrient agar plates and the Pseudomonas strains were maintained on blood agar plates.
Pyrogen-free solutions were used throughout the assay and all methods that follow. Log phase bacteria were prepared from a culture in brain heart infusion broth (Hovde et al. Infect. Immun. 54:142–148, 1986) and bacteria were washed and resuspended in saline with adjustment to an optical density at 650 nm to provide a yield of about 3×10^8 CFU/ml. Bacteria were diluted 1:10 in 0.08M citrate phosphate buffer, pH 5.6 or pH 7.0, for use in the assay. S. aureus rapidly lost viability in the pH 5.6 buffer and was studied only at pH 7.0. Bactericidal activity was determined by dose response over peptide concentrations ranging from about […] to about 4.1×10^−9M. Bactericidal activity was determined by dose response, preferably determining LD50 by linear regression.

[2] = tested on: endothelial cells (FBHEC, HUVEC); experiment: Endothelial cell proliferation assay of βpeptides 1–24 (FIG. 7); type: cell-based; conditions: for effectiveness at decreasing endothelial cell growth: 0.26 micromolar
Experimental: FIG. […] FIG. 7A provides ^3H-Thymidine incorporation data for FBHEC cells and FIG. 7B provides ^3H-Thymidine incorporation data for HUVEC cells.
βpeptides 1–24 were tested in an endothelial cell proliferation assay using ^3H-thymidine incorporation. […]

[3] = 0.02 U (0.2 pg) endotoxin from E. coli 055:B5
[4] = dose at which the % in brackets was found

## interferon-γ inducible protein-10 [IP-10]
EC (endothelial cells)
  (3H)-thymidine incorporation: 725 ± 95 cpm
ICAM-1
  effect of other inhibitors of angiogenesis on ICAM-1 expression (in words): same results

## SIQDLKVSLNLFRKQAKWKIIVKLNDGRELSLD [βpep-23]
[1]
  endotoxin neutralizing activity (in words): best endotoxin neutralizing activity
  Endotoxin Neutralization, % at the effective dose: 65.7%
[1]; [3]
  Endotoxin Neutralization, % neutralization: 100%
[1]; [4]
  Endotoxin Neutralization, Ed, Effective M dose: 1.2 µM
P. aeruginosa
  Bactericidal Activity, % killing: 0%
  Bactericidal Activity, % killing at the effective dose: 45.8%
  Bactericidal Activity, Ed, Effective M dose: 480 nM
[2]
  effectiveness at decreasing endothelial cell growth: about 30%

## ANIKLSVEMKLFKRHLKWKIIVKLNDGRELSLD [βpep-8]
[1]
  endotoxin neutralizing activity (in words): best endotoxin neutralizing activity
  Endotoxin Neutralization, % at the effective dose: 77.9%
[1]; 5.0 × 10^−5 M peptide, 0.02 U (0.2 pg) endotoxin from E. coli 055:B5, Table 3
  Endotoxin Neutralizing Activity, % neutralization: 100%
[1]; [3]
  Endotoxin Neutralization, % neutralization: 100%
[1]; Table 3, dose at which the % in brackets was found
  Endotoxin neutralization, ED, Effective M dose: 1.2 µM
[1]; [4]
  Endotoxin Neutralization, Ed, Effective M dose: 1.2 µM
P. aeruginosa
  Bactericidal Activity, % killing: 0%
  Bactericidal Activity, % killing at the effective dose: (28.1), n = 3%
  Bactericidal Activity, Ed, Effective M dose: 960 nM
[2]
  control of endothelial cell proliferation (in words): little cell proliferation activity

## SIQFLKVSLNLDRKQAKWKIIVKLNDGRELSLD [βpep-24]
[2]
  control of endothelial cell proliferation (in words): very good at controlling cell proliferation
  effectiveness at decreasing endothelial cell growth: about 30%
